This passage reports Kd results from ChEMBL document CHEMBL1158514, “Molecular design of small organic molecules based on structural information for a conformationally constrained peptide that binds to G-CSF receptor” (Bioorg Med Chem Lett, 2010).

Usually Kd stands for the concentration at which binding is half-saturated.

This experiment addresses T1, Granulocyte colony-stimulating factor receptor (Homo sapiens, UniProt Q99062).
T1 sequence (Q99062 whole entry): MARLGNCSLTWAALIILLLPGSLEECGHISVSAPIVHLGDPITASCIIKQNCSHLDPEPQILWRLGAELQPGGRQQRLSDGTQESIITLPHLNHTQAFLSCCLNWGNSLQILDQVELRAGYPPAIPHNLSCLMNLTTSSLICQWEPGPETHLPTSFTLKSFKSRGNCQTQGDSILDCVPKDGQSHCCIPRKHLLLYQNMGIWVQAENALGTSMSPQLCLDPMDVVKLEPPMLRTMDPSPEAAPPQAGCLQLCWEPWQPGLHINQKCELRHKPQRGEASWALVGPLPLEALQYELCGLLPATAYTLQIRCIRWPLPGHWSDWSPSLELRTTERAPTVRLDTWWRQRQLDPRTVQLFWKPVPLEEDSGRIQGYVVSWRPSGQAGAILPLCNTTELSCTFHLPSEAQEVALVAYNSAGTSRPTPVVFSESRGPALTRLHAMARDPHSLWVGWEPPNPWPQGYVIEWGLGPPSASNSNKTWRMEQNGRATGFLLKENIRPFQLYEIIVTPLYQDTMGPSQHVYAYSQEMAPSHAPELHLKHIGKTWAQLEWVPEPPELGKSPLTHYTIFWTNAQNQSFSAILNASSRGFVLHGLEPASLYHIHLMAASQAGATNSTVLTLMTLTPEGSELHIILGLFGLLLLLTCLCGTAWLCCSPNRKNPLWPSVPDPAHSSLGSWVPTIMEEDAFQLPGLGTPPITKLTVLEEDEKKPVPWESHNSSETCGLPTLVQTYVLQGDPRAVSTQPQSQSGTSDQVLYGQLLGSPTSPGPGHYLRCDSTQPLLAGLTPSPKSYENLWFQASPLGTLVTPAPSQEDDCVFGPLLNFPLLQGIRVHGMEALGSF
As to the kind of experiment: Binding affinity to granulocyte colony stimulating factor receptor by SPR biosensor technique. On the technique in general: SPR reads the build-up and loss of mass on a sensor chip optically.

`CC(C)CCOc1cc(OCCCN)cc(-c2ccc(CCC(N)=O)c(CCC(=O)O)c2)c1`: the Kd result is given as “Not Active”.

As for `CC(C)CCOc1cc(CN(CCC(=O)O)c2cccc(CCC(N)=O)c2)cc(OCCCN)c1`, the Kd (read-out: Kd) stood at 47 µM.

As to `CC(C)CCOc1cc(CN(CCC(N)=O)c2cccc(CCC(=O)O)c2)cc(OCCCN)c1`, the equilibrium dissociation constant (Kd) entry is “Not Active”.

For `CC(C)CCOc1cc(OCCCN)cc(-c2ccc(CCC(=O)O)c(CCC(N)=O)c2)c1`, the dissociation constant (Kd) (read-out: Kd) was 20 µM.
